The test has as its target T1, FLT3-D835Y (Homo sapiens, UniProt P36888, D835Y).
T1 construct: purchased Invitrogen PV3967
T1 sequence (P36888 27-993 D835Y): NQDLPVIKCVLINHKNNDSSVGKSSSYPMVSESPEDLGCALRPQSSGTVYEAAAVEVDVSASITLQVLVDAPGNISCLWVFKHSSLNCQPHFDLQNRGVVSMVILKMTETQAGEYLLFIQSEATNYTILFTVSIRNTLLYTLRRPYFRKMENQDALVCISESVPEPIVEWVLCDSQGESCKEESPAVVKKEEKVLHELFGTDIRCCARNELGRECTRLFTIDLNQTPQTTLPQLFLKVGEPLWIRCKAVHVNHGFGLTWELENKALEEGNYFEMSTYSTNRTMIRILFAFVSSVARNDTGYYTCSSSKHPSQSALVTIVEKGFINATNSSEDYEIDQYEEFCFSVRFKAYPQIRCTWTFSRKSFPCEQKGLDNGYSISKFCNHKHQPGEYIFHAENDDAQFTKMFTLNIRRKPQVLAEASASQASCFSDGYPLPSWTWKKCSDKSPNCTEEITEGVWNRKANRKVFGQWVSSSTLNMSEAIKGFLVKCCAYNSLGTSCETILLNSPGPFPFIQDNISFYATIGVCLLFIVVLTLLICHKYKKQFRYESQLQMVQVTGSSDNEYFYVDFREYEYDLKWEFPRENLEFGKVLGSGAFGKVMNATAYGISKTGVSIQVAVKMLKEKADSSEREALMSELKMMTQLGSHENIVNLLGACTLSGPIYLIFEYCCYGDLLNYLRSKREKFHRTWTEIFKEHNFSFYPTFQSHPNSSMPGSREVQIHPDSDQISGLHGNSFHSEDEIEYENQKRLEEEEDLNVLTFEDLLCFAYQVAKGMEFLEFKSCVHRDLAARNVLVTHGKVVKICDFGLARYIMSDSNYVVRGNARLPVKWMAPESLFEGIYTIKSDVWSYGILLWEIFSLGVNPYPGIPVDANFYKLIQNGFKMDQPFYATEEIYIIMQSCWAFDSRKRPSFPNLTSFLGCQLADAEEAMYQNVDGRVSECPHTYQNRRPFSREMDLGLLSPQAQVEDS
As to the kind of experiment: AlphaScreen kinase assay with recombinant enzyme, FLT3-D835Y. The test is classed as biochemical. As to conditions: 8pt, GMean. The method, boiled down: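 Compounds in DMSO added to enzyme plus biotin-poly(Glu4-Tyr) (30 nM) in assay buffer, then ATP added. Streptavidin donor beads added (20 min, RT), then PY20 acceptor beads (60 min, RT), both at 10 μg/mL final in stop/detection buffer. IC50 conditions: 10 μM FLT3-D835Y/ITD, 100 μM c-KIT.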
In general terms: Alpha assays give light when donor and acceptor beads are brought close together.
Regarding `CONC(=O)c1cccc(-c2cnc3[nH]c(-c4ccccc4)cc3c2)c1` [Compound P-0003, N-methoxy-3-(2-phenyl-1H-pyrrolo[2,3-b]pyridin-5-yl)benzamide], the IC50 fell in the range of 0.0001 to 10 µM. The result for `C#Cc1cc2cc(-c3cccc(S(=O)(=O)NC4CC4)c3)cnc2[nH]1` [Compound P-0004, N-cyclopropyl-3-(2-ethynyl-1H-pyrrolo[2,3-b]pyridin-5-yl)benzenesulfonamide] reads 0.0001 to 10 µM; that for `NC(=O)Nc1ccc(-c2cnc3[nH]c(-c4ccccc4)cc3c2)cc1` [Compound P-0005, [4-(2-phenyl-1H-pyrrolo[2,3-b]pyridin-5-yl)phenyl]urea], 10 to 50 µM; that for `CNC(=O)Nc1ccc(-c2cnc3[nH]c(-c4ccccc4)cc3c2)cc1` [Compound P-0006, 1-methyl-3-[4-(2-phenyl-1H-pyrrolo[2,3-b]pyridin-5-yl)phenyl]urea], 0.0001 to 10 µM.

As to `CN(C)S(=O)(=O)Nc1cccc(-c2cnc3[nH]c(-c4ccccc4)cc3c2)c1` [Compound P-0007, 5-[3-(dimethylsulfamoylamino)phenyl]-2-phenyl-1H-pyrrolo[2,3-b]pyridine], the IC50 was 0.0001 to 10 µM. The result for `O=S(=O)(NC1CC1)c1cccc(-c2cnc3[nH]c(C#CCO)cc3c2)c1` [Compound P-0008, N-cyclopropyl-3-[2-(3-hydroxyprop-1-ynyl)-1H-pyrrolo[2,3-b]pyridin-5-yl]benzenesulfonamide] reads 0.0001 to 10 µM; that for `CN(C)CC#Cc1cc2cc(-c3cccc(S(=O)(=O)NC4CC4)c3)cnc2[nH]1` [Compound P-0009, N-cyclopropyl-3-[2-[3-(dimethylamino)prop-1-ynyl]-1H-pyrrolo[2,3-b]pyridin-5-yl]benzenesulfonamide], 0.0001 to 10 µM; that for `O=S(=O)(NC1CC1)c1cccc(-c2cnc3[nH]c(C#CC4CCCCC4)cc3c2)c1` [Compound P-0010, 3-[2-(2-cyclohexylethynyl)-1H-pyrrolo[2,3-b]pyridin-5-yl]-N-cyclopropyl-benzenesulfonamide], 50 to 100 µM. Take `CC(C)(C)OC(=O)NC1CCN(C(=O)c2n[nH]c3ccc(-c4cnc5[nH]c(-c6ccccc6)cc5c4)cc23)CC1` [Compound P-0011, tert-butyl N-[1-[5-(2-phenyl-1H-pyrrolo[2,3-b]pyridin-5-yl)-1H-indazole-3-carbonyl]-4-piperidyl]carbamate]: the IC50 is 0.0001 to 10 µM.

For the compound `O=S(=O)(NC1CC1)c1cccc(-c2cnc3[nH]c(C#Cc4ccccc4)cc3c2)c1` [Compound P-0014, N-cyclopropyl-3-[2-(2-phenylethynyl)-1H-pyrrolo[2,3-b]pyridin-5-yl]benzenesulfonamide], the IC50 fell in the range of 50 to 100 µM. The result for `N[C@H]1CCN(C(=O)c2cccc(-c3cnc4[nH]c(-c5ccccc5)cc4c3)n2)C1` [Compound P-0015, [(3S)-3-aminopyrrolidin-1-yl]-[6-(2-phenyl-1H-pyrrolo[2,3-b]pyridin-5-yl)-2-pyridyl]methanone] reads 0.0001 to 10 µM; that for `N[C@H]1CCN(C(=O)c2n[nH]c3ccc(-c4cnc5[nH]c(-c6ccccc6)cc5c4)cc23)C1` [Compound P-0016, [(3S)-3-aminopyrrolidin-1-yl]-[5-(2-phenyl-1H-pyrrolo[2,3-b]pyridin-5-yl)-1H-indazol-3-yl]methanone], 0.0001 to 10 µM; that for `CC(C)(C)OC(=O)NC1CCN(C(=O)c2cccc(-c3cnc4[nH]c(-c5ccccc5)cc4c3)n2)CC1` [Compound P-0017, tert-butyl N-[1-[6-(2-phenyl-1H-pyrrolo[2,3-b]pyridin-5-yl)pyridine-2-carbonyl]-4-piperidyl]carbamate], 0.0001 to 10 µM. Regarding `CC(=O)NC1CCN(C(=O)c2cccc(-c3cnc4[nH]c(-c5ccccc5)cc4c3)n2)CC1` [Compound P-0020, N-[1-[6-(2-phenyl-1H-pyrrolo[2,3-b]pyridin-5-yl)pyridine-2-carbonyl]-4-piperidyl]acetamide], the IC50 lay within 0.0001 to 10 µM. For `CC(=O)NC1CCN(C(=O)c2n[nH]c3ccc(-c4cnc5[nH]c(-c6ccccc6)cc5c4)cc23)CC1` [Compound P-0021, N-[1-[5-(2-phenyl-1H-pyrrolo[2,3-b]pyridin-5-yl)-1H-indazole-3-carbonyl]-4-piperidyl]acetamide], the IC50 is 0.0001 to 10 µM. Turning to `CN1CCC(NC(=O)c2n[nH]c3ccc(-c4cnc5[nH]c(-c6ccccc6)cc5c4)cc23)CC1` [Compound P-0022, N-(1-methyl-4-piperidyl)-5-(2-phenyl-1H-pyrrolo[2,3-b]pyridin-5-yl)-1H-indazole-3-carboxamide], the IC50 was 0.0001 to 10 µM. As to `O=C(c1cccc(-c2cnc3[nH]c(-c4ccccc4)cc3c2)n1)N1CCC(CO)CC1` [Compound P-0023, [4-(hydroxymethyl)-1-piperidyl]-[6-(2-phenyl-1H-pyrrolo[2,3-b]pyridin-5-yl)-2-pyridyl]methanone], the IC50 lay in the range of 0.0001 to 10 µM.

For the compound `CCOC(=O)C1CCN(C(=O)c2cccc(-c3cnc4[nH]c(-c5ccccc5)cc4c3)n2)CC1` [Compound P-0025, ethyl 1-[6-(2-phenyl-1H-pyrrolo[2,3-b]pyridin-5-yl)pyridine-2-carbonyl]piperidine-4-carboxylate], the IC50 lay in the range of 0.0001 to 10 µM.

With `NCC1CCN(C(=O)c2cccc(-c3cnc4[nH]c(-c5ccccc5)cc4c3)n2)CC1` [Compound P-0026, [4-(aminomethyl)-1-piperidyl]-[6-(2-phenyl-1H-pyrrolo[2,3-b]pyridin-5-yl)-2-pyridyl]methanone], the IC50 lay within 0.0001 to 10 µM. The result for `CC1CCN(C(=O)c2n[nH]c3ccc(-c4cnc5[nH]c(-c6ccccc6)cc5c4)cc23)CC1` [Compound P-0027, (4-methyl-1-piperidyl)-[5-(2-phenyl-1H-pyrrolo[2,3-b]pyridin-5-yl)-1H-indazol-3-yl]methanone] reads 0.0001 to 10 µM. With `CNC1CCN(C(=O)c2n[nH]c3ccc(-c4cnc5[nH]c(-c6ccccc6)cc5c4)cc23)C1` (centres unmarked) [Compound P-0028, [3-(methylamino)pyrrolidin-1-yl]-[5-(2-phenyl-1H-pyrrolo[2,3-b]pyridin-5-yl)-1H-indazol-3-yl]methanone], the IC50 fell in the range of 0.0001 to 10 µM. The result for `c1ccc(-c2cc3cc(-c4cccc(OC5CCNCC5)n4)cnc3[nH]2)cc1` [Compound P-0050, 2-phenyl-5-[6-(4-piperidyloxy)-2-pyridyl]-1H-pyrrolo[2,3-b]pyridine] reads 0.0001 to 10 µM. For the compound `N[C@H]1CCN(C(=O)c2ncc(-c3cnc4[nH]c(-c5ccccc5)cc4c3)s2)C1` [Compound P-0054, [(3S)-3-aminopyrrolidin-1-yl]-[5-(2-phenyl-1H-pyrrolo[2,3-b]pyridin-5-yl)thiazol-2-yl]methanone], the IC50 lay in the range of 0.0001 to 10 µM. The value for `CC1(C#N)CCN(C(=O)c2cccc(-c3cnc4[nH]c(-c5ccccc5)cc4c3)n2)CC1` [Compound P-0094, 4-methyl-1-[6-(2-phenyl-1H-pyrrolo[2,3-b]pyridin-5-yl)pyridine-2-carbonyl]piperidine-4-carbonitrile] was 0.0001 to 10 µM; that for `COC1CCN(C(=O)c2cccc(-c3cnc4[nH]c(-c5ccccc5)cc4c3)n2)CC1` [Compound P-0098, (4-methoxy-1-piperidyl)-[6-(2-phenyl-1H-pyrrolo[2,3-b]pyridin-5-yl)-2-pyridyl]methanone] was 0.0001 to 10 µM; that for `CS(=O)(=O)NC1CCN(C(=O)c2cccc(-c3cnc4[nH]c(-c5ccccc5)cc4c3)n2)C1` (centres unmarked) [Compound P-0101, N-[1-[6-(2-phenyl-1H-pyrrolo[2,3-b]pyridin-5-yl)pyridine-2-carbonyl]pyrrolidin-3-yl]methanesulfonamide] was 0.0001 to 10 µM.

`O=C(c1cccc(-c2cnc3[nH]c(-c4ccccc4)cc3c2)n1)N1CCC(N2CCOCC2)C1` (centres unmarked) [Compound P-0102, (3-morpholinopyrrolidin-1-yl)-[6-(2-phenyl-1H-pyrrolo[2,3-b]pyridin-5-yl)-2-pyridyl]methanone]: the IC50 lay within 0.0001 to 10 µM. The result for `O=C(c1cccc(-c2cnc3[nH]c(-c4ccccc4)cc3c2)n1)N1CCC(C(F)(F)F)C1` (centres unmarked) [Compound P-0103, [6-(2-phenyl-1H-pyrrolo[2,3-b]pyridin-5-yl)-2-pyridyl]-[3-(trifluoromethyl)pyrrolidin-1-yl]methanone] reads 0.0001 to 10 µM; that for `CN(C)C1CCN(C(=O)c2cccc(-c3cnc4[nH]c(-c5ccccc5)cc4c3)n2)C1` (centres unmarked) [Compound P-0104, [3-(dimethylamino)pyrrolidin-1-yl]-[6-(2-phenyl-1H-pyrrolo[2,3-b]pyridin-5-yl)-2-pyridyl]methanone], 0.0001 to 10 µM.

In general, IC50 refers to the concentration that gives 50% inhibition.

Values taken from patent US9938273B2 (Plexxikon Inc., priority 2015, dated 2018).
